Molecular target: T1, human LPAR1 (Homo sapiens, UniProt Q92633)
T1 construct: host or cells: CHO-K1
Assay: LPAR1 intracellular calcium mobilization assay (antagonist mode)
Assay type: cell-based
Conditions: CHO-K1 EDG2 cells expressing human LPAR1; 60 min pre-incubation with compound (0.5 nM to 10 μM), then LPA 18:2 challenge; FLIPR Tetra calcium signal
Method: In vitro LPAR1 activity was measured in an intracellular calcium mobilization assay.
CHO-K1 EDG2 cells (DiscoverX cat #93-0644C2) expressing human LPAR1 (NM_001401.3) were seeded in a total volume of 25 μL of Dulbecco's Modification of Eagle's Medium (DMEM) with 10% Fetal Bovine Serum, 1× PenStrepGlutamine, 300 μg/ml Hygromycin, and 800 μg/ml G418 into 384-well tissue culture plate (Grenier #781091) at 15,000 cells/well and incubated at 37° C. overnight. Prior to testing, 25 μL Calcium Loading Dye Component A (FLIPR Calcium 6 Assay Kit Molecular Device #R8190) and 2.5 mM Probenecid (Invitrogen #P36400, prepared fresh) in Hank's Balanced Salt Solution (Corning #21-023-CV), 20 mM HEPES (Corning #25-060-CI), 0.1% Bovine Serum Albumin (Sigma-Aldrich #A7906-500G) was add to the cells for 60 minutes at 37° C.
Agonist dose curves of LPA 18:2 (Avanti Polar Lipids cat #857138, 0.5 nM to 10 μM) were recorded to determine the LPA 18:2 EC80 for subsequent antagonist assays. For agonist dose curves, cells were removed from the incubator 2 hours after dye loading and transferred to the FLIPR Tetra instrument (Molecular Devices, San Jose, CA). Calcium mobilization was monitored for 5 min and 10 μL 6×LPA in HBSS/20 mM Hepes/0.1% bovine serum albumin (BSA) was added to the cells 5 seconds into the assay.
To determine the LPAR1 antagonist activity of test compounds, cells were pre-incubated with test compound at a dose range of 0.5 nM to 10 μM, followed by LPA at […] concentration (100 nM). After dye loading, cells were removed from the incubator and 0.3 μL of 200× antagonist was added. Cells were incubated for 60 minutes at 37° C. Antagonist activity was measured on a FLIPR Tetra. Calcium mobilization was monitored for 3.5 minutes and 10 μL 6×EC80 LPA in HBSS, 20 mM HEPES, and 0.1% BSA was added to the cells 5 seconds into the assay. Signal amplitude (Maximum minus minimum) values were plotted against log10 of antagonist concentration using Dose Response Tool (Gilead Sciences Inc.) to determine EC50.
To assess the antagonistic potential of exemplified compounds EC50 values were determined for Compounds 1 to 55 in the LPAR1 calcium mobilization assay. The compound numbers correspond to the compound numbers in Examples 1 to 35. N/A=not available.

T1 sequence (Q92633 whole entry): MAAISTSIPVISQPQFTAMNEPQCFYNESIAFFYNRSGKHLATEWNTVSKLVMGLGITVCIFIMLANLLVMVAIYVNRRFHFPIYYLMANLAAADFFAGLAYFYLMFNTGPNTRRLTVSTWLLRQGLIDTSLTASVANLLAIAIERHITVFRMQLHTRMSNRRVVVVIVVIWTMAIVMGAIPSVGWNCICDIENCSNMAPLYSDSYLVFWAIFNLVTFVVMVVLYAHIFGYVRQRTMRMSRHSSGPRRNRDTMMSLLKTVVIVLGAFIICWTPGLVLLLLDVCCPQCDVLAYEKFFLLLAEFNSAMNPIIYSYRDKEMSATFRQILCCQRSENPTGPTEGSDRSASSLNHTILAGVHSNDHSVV

| Compound | EC50 [nM] |
| --- | --- |
| C[C@@H](OC(=O)Nc1c(-c2ncc(NC(=O)[C@@H]3C[C@H]3c3cccnc3)cn2)cnn1C)c1cc(F)cnc1F [Compound 33, (R)-1-(2,5-difluoropyridin-3-yl)ethyl (1-methyl-4-(5-((1R,2R)-2-(pyridin-3-yl)cyclopropane-1-carboxamido)pyrimidin-2-yl)-1H-pyrazol-5-yl)carbamate] | 20.3 |
| C[C@@H](OC(=O)Nc1c(-c2ncc(NC(=O)C3(C)CC(F)(F)C3)cn2)cnn1C)c1cc(F)cnc1F [Compound 35, (R)-1-(2,5-difluoropyridin-3-yl)ethyl (4-(5-(3,3-difluoro-1-methylcyclobutane-1-carboxamido)pyrimidin-2-yl)-1-methyl-1H-pyrazol-5-yl)carbamate] | 14 |
| C[C@@H](OC(=O)Nc1c(-c2ccc(NS(C)(=O)=O)cn2)cnn1C)c1cccnc1Cl [Compound 20, (R)-1-(2-chloropyridin-3-yl)ethyl (1-methyl-4-(5-(methylsulfonamido)pyridin-2-yl)-1H-pyrazol-5-yl)carbamate] | 216 |
| C[C@@H](OC(=O)Nc1c(-c2ncc(NC(=O)c3cnc(C(F)F)nc3)cn2)cnn1C)c1cc(F)cnc1F [Compound 24, (R)-1-(2,5-difluoropyridin-3-yl)ethyl (4-(5-(2-(difluoromethyl)pyrimidine-5-carboxamido)pyrimidin-2-yl)-1-methyl-1H-pyrazol-5-yl)carbamate] | 26.8 |
| C[C@@H](OC(=O)Nc1c(-c2ncc(NC(=O)C3(C#N)CC3)cn2)cnn1C)c1cccnc1F [Compound 42, (R)-1-(2-fluoropyridin-3-yl)ethyl (4-(5-(1-cyanocyclopropane-1-carboxamido)pyrimidin-2-yl)-1-methyl-1H-pyrazol-5-yl)carbamate] | 54.9 |
| C[C@@H](OC(=O)Nc1c(-c2ncc(C(=O)NC34CC(F)(C3)C4)cn2)cnn1C)c1cc(F)cnc1F [Compound 47, (R)-1-(2,5-difluoropyridin-3-yl)ethyl (4-(5-((3-fluorobicyclo[1.1.1]pentan-1-yl)carbamoyl)pyrimidin-2-yl)-1-methyl-1H-pyrazol-5-yl)carbamate] | 799 |
| C[C@@H](OC(=O)Nc1c(-c2ncc(NC(=O)c3ccc(C(F)(F)F)nc3)cn2)cnn1C)c1cc(F)cnc1F [Compound 27, (R)-1-(2,5-difluoropyridin-3-yl)ethyl (1-methyl-4-(5-(6-(trifluoromethyl)nicotinamido)pyrimidin-2-yl)-1H-pyrazol-5-yl)carbamate] | 28 |
| C[C@@H](OC(=O)Nc1c(-c2ncc(NC(=O)C3(C(F)F)CC3)cn2)cnn1C)c1cc(F)cnc1Cl [Compound 25, (R)-1-(2-chloro-5-fluoropyridin-3-yl)ethyl (4-(5-(1-(difluoromethyl)cyclopropane-1-carboxamido)pyrimidin-2-yl)-1-methyl-1H-pyrazol-5-yl)carbamate] | 60.5 |
| C[C@@H](OC(=O)Nc1c(-c2ccc(C(=O)NC34CC(C#N)(C3)C4)cn2)cnn1C)c1cccc(F)c1 [Compound 49] | 1860 |
| C[C@@H](OC(=O)Nc1c(-c2ncc(NC(=O)C3(C(F)F)CC3)cn2)cnn1C)c1cc(F)cnc1F [Compound 28, (R)-1-(2,5-difluoropyridin-3-yl)ethyl (4-(5-(1-(difluoromethyl)cyclopropane-1-carboxamido)pyrimidin-2-yl)-1-methyl-1H-pyrazol-5-yl)carbamate] | 216 |
| C[C@@H](OC(=O)Nc1c(-c2ncc(NC(=O)[C@@H]3C[C@H]3C(F)(F)F)cn2)cnn1C)c1cc(F)cnc1F [Compound 29, (R)-1-(2,5-difluoropyridin-3-yl)ethyl (1-methyl-4-(5-((1R,2R)-2-(trifluoromethyl)cyclopropane-1-carboxamido)pyrimidin-2-yl)-1H-pyrazol-5-yl)carbamate] | < 4.6 |
| C[C@@H](OC(=O)Nc1c(-c2ncc(C(=O)NC34CC(C#N)(C3)C4)cn2)cnn1C)c1cc(F)cnc1F [Compound 46, (R)-1-(2,5-difluoropyridin-3-yl)ethyl (4-(5-((3-cyanobicyclo[1.1.1]pentan-1-yl)carbamoyl)pyrimidin-2-yl)-1-methyl-1H-pyrazol-5-yl)carbamate] | 158 |
| C[C@@H](OC(=O)Nc1c(-c2ncc(NC(=O)[C@@H]3C[C@H]3C(F)(F)F)cn2)cnn1C)c1cccnc1Cl [Compound 32, (R)-1-(2-chloropyridin-3-yl)ethyl (1-methyl-4-(5-((1R,2R)-2-(trifluoromethyl)cyclopropane-1-carboxamido)pyrimidin-2-yl)-1H-pyrazol-5-yl)carbamate] | < 4.6 |
| C[C@@H](OC(=O)Nc1c(-c2ccc(NS(C)(=O)=O)cc2)cnn1C)c1ccccc1Cl [Compound 1, (R)-1-(2-chlorophenyl)ethyl (1-methyl-4-(4-(methylsulfonamido)phenyl)-1H-pyrazol-5-yl)carbamate] | 11.7 |

The next lines start with the values.

| EC50 [nM] | Compound |
| --- | --- |
| 301 | C[C@@H](OC(=O)Nc1c(-c2ncc(O)cn2)cnn1C)c1cc(F)cnc1F [Compound 45, (R)-1-(2,5-difluoropyridin-3-yl)ethyl (4-(5-hydroxypyrimidin-2-yl)-1-methyl-1H-pyrazol-5-yl)carbamate] |
| 19.7 | C[C@@H](OC(=O)Nc1c(-c2ncc(NC(=O)C3(C#N)CC3)cc2F)cnn1C)c1cc(F)cnc1F [Compound 17, (R)-1-(2,5-difluoropyridin-3-yl)ethyl (4-(5-(1-cyanocyclopropane-1-carboxamido)-3-fluoropyridin-2-yl)-1-methyl-1H-pyrazol-5-yl)carbamate] |
| 74 | C[C@@H](OC(=O)Nc1c(-c2ncc(OS(C)(=O)=O)cc2F)cnn1C)c1cc(F)cnc1F [Compound 11, (R)-6-(5-(((1-(2,5-difluoropyridin-3-yl)ethoxy)carbonyl)amino)-1-methyl-1H-pyrazol-4-yl)-5-fluoropyridin-3-yl methanesulfonate] |
| 42.9 | C[C@@H](OC(=O)Nc1c(-c2ncc(OS(C)(=O)=O)cn2)cnn1C)c1cccnc1Cl [Compound 9, (R)-2-(5-(((1-(2-chloropyridin-3-yl)ethoxy)carbonyl)amino)-1-methyl-1H-pyrazol-4-yl)pyrimidin-5-yl methanesulfonate] |
| 14.1 | C[C@@H](OC(=O)Nc1c(-c2ncc(OS(C)(=O)=O)cn2)cnn1C)c1cc(F)cnc1Cl [Compound 6, (R)-2-(5-(((1-(2-chloro-5-fluoropyridin-3-yl)ethoxy)carbonyl)amino)-1-methyl-1H-pyrazol-4-yl)pyrimidin-5-yl methanesulfonate] |
| 31.1 | C[C@@H](OC(=O)Nc1c(-c2ncc(OS(C)(=O)=O)cc2F)cnn1C)c1cccnc1Cl [Compound 12, (R)-6-(5-(((1-(2-chloropyridin-3-yl)ethoxy)carbonyl)amino)-1-methyl-1H-pyrazol-4-yl)-5-fluoropyridin-3-yl methanesulfonate] |
| 523 | C[C@@H](OC(=O)Nc1c(-c2ncc(OS(C)(=O)=O)cn2)cnn1C)c1cccnc1F [Compound 8, (R)-2-(5-(((1-(2-fluoropyridin-3-yl)ethoxy)carbonyl)amino)-1-methyl-1H-pyrazol-4-yl)pyrimidin-5-yl methanesulfonate] |
| 2880 | C[C@@H](OC(=O)Nc1c(-c2ncc(C(F)F)cn2)cnn1C)c1cc(F)cnc1F [Compound 54, (R)-1-(2,5-difluoropyridin-3-yl)ethyl (4-(5-(difluoromethyl)pyrimidin-2-yl)-1-methyl-1H-pyrazol-5-yl)carbamate] |
